The record followed here is ChEMBL document CHEMBL1201862, “PubChem BioAssay data set” (2004).

Experiment [1] is described as follows: Luminescence Cell-Based Dose HTS Response to Identify Inhibitors of 5'UTR Stem-Loop Driven Prion Protein mRNA Translation in H4-C Neuroglioblastoma Cells. [Related pubchem assays (depositor defined):AID1814, AID1827]. Type of experiment: functional.
A short description of experiment [2]: Luminescence Cell-Based Dose Response HTS to Identify Activators of 5'UTR Stem-Loop Driven Prion Protein mRNA Translation in H4-C Neuroglioblastoma Cells. [Related pubchem assays: 1829 (Project Summary), 1814 (Primary HTS)]. Type of experiment: functional.
Experiment [3] is described as follows: Luminescence Cell-Based Dose Confirmation HTS to Identify Inhibitors of 5'UTR Stem-Loop Driven Alpha-Synuclein mRNA Translation in H4 Neuroglioblastoma Cells. [Related pubchem assays: 1827 (Project Summary), 1813 (Primary HTS)]. Type of experiment: functional.
Experiment [4] in a line: Luminescence Cell-Based Dose Response HTS to Identify Activators of Luciferase Translation or Activity in H4-C Neuroglioblastoma Cells. [Related pubchem assays: 1829 (Project Summary), 1814 (Primary HTS)]. Type of experiment: functional.
A short description of experiment [5]: Luminescence Cell-Based Dose Response HTS to Identify Inhibitors of Luciferase Translation or Activity in H4-C Neuroglioblastoma Cells. [Related pubchem assays: 1813 (Primary HTS), 1827 (Project Summary)]. Type of experiment: functional.
A short description of experiment [6]: Luminescence Cell-Based Dose Retest to Confirm Activators of 5'UTR Stem-Loop Driven Alpha-Synuclein mRNA Translation in H4 Neuroglioblastoma Cells. [Related pubchem assays (depositor defined):AID1813, AID1829]. Type of experiment: functional.
Experiment [7] can be described thus: Luminescence Cell-Based Dose Response HTS to Identify Inhibitors of 5'UTR Stem-Loop Driven Prion Protein mRNA Translation in H4 Neuroglioblastoma Cells. [Related pubchem assays: 1827 (Project Summary), 1813 (Primary HTS)]. Type of experiment: functional.
Experiment [8] in a line: inhibitors of SNCA 5'UTR-driven reporter translation, confirmation, H4 neuroglioma cells, luminescence (AID 1988). Type of experiment: functional, cell-based.
Experiment [9] has as its target Intestinal-type alkaline phosphatase (Homo sapiens, UniProt P09923). As to the kind of experiment: human intestinal alkaline phosphatase activators, dose response, biochemical, luminescence, uHTS hits (AID 463120). Type of experiment: functional.
Experiment [10] can be described thus: inhibitors of firefly luciferase expression or activity, dose response, H4 neuroglioma cells, luminescence (AID 1990). Type of experiment: functional, cell-based.
The target of experiment [11] is T1, E3 ubiquitin-protein ligase XIAP (Homo sapiens, UniProt P98170). Description: XIAP antagonists, biochemical, IAP family, fluorescence polarization (AID 1018). Type of experiment: functional. (In general: Fluorescence polarisation rises when a labelled molecule tumbles more slowly, as on binding a larger partner.)
The target in experiment [12] is T1, E3 ubiquitin-protein ligase XIAP. Description: Counter Screen using XIAP-Bir3 for Chemical Antagonists of Bir1/2 domains of IAP-family anti-apoptotic proteins. [Related pubchem assays (depositor defined):AID1018, AID1449, AID1514, AID1638, AID1749, AID1750, AID488957, AID488963].
The target of another experiment is T2, Hexokinase HKDC1 (Homo sapiens, UniProt Q2TB90).
T2 sequence (Q2TB90 whole entry): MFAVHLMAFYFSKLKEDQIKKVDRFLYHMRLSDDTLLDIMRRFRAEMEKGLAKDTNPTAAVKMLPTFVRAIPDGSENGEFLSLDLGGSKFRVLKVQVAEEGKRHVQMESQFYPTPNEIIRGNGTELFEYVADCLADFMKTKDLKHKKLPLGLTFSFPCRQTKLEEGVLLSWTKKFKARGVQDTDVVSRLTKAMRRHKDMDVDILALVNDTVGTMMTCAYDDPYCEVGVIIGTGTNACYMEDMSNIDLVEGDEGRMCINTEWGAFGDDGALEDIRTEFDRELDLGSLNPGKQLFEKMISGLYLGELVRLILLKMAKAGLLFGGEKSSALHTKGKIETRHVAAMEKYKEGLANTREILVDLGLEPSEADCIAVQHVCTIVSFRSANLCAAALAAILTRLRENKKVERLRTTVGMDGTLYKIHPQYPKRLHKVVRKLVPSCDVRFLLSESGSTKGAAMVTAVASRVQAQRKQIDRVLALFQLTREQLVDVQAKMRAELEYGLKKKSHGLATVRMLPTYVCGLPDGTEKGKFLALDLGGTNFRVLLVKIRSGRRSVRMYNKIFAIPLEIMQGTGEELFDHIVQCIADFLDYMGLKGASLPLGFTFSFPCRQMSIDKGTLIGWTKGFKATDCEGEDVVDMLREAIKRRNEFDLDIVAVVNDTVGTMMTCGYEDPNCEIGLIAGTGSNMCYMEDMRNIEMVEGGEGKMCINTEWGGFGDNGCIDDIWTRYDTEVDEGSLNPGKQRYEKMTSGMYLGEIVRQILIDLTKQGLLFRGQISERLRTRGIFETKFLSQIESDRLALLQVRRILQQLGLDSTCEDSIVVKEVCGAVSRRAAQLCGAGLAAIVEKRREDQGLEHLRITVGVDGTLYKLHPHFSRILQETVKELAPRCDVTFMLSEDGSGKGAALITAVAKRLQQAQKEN
Description: HKDC1 hexokinase activators, dose response, biochemical, W721R variant (AID 504730). Type of experiment: functional.

In a further experiment the target is T3, Hexokinase-1 (Homo sapiens, UniProt P19367).
T3 sequence (P19367 whole entry): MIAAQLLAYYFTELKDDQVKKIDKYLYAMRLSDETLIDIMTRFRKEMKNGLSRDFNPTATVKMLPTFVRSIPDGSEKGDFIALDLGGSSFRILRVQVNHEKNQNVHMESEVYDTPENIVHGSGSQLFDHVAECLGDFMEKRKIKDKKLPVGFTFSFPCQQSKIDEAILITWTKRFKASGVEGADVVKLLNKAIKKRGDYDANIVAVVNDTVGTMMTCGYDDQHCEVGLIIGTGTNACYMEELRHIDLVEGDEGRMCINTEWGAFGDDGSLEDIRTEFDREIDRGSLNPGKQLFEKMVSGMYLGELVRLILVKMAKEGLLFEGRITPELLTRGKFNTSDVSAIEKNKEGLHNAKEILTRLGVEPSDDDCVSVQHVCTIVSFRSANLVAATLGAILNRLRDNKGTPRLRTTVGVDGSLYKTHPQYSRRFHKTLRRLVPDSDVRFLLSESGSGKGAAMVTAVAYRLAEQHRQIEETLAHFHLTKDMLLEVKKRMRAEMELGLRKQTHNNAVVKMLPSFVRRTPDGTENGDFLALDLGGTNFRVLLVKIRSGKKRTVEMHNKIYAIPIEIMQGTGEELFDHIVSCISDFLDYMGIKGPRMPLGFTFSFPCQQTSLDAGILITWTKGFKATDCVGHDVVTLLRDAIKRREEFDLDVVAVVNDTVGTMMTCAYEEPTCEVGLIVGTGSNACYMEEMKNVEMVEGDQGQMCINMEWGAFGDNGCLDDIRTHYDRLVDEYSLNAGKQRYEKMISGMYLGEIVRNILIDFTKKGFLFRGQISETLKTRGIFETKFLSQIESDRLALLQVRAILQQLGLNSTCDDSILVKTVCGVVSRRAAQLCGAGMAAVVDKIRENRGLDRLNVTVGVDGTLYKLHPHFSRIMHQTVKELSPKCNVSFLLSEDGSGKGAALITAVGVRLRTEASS
Description: hexokinase 1 activators, dose response, selectivity assay for HKDC1 activator project, biochemical (AID 504762). Type of experiment: functional.

Experiment [13] concerns the target T4, Replicative DNA helicase DnaB (Mycobacterium tuberculosis, UniProt P9WMR3).
T4 sequence (P9WMR3 whole entry): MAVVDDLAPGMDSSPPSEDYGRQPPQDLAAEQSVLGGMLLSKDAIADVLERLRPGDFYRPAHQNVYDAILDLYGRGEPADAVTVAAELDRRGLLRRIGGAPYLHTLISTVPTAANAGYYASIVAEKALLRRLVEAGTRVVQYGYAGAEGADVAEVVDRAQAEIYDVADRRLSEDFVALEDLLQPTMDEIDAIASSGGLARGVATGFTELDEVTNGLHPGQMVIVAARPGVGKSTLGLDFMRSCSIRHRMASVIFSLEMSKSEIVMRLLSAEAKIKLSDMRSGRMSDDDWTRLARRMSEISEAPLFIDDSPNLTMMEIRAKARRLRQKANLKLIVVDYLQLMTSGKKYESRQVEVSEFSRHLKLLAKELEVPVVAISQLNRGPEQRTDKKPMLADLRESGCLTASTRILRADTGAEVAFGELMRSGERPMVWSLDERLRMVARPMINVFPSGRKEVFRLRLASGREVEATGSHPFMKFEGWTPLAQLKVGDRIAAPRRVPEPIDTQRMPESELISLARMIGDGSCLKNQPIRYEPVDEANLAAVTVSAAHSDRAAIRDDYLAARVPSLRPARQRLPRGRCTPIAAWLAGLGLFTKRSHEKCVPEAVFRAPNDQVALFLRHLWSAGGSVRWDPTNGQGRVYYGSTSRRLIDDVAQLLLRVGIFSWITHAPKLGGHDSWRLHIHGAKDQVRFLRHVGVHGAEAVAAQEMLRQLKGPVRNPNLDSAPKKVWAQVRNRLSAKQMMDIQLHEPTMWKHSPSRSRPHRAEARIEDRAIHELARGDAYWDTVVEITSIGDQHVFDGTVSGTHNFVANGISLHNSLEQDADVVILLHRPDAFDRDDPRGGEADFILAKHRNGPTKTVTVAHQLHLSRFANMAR
Description: DnaB intein splicing inhibitors, dose response, biochemical, cell-free fluorescence (AID 449749). Type of experiment: functional.

Experiment [14] in a line: Intein inhibitors as potential Tuberculosis drugs, a cytotoxicity screen. [Related pubchem assays (depositor defined):AID2221, AID2223, AID434968, AID435010, AID449749, AID449750, AID489010]. Type of experiment: functional.
Experiment [15] in a line: Luminescence Cell-Based Dose Retest to Confirm Inhibitors of Cancer Stem Cells. [Related pubchem assays (depositor defined):AID2717, AID2721]. Type of experiment: functional. Conditions: Homo sapiens.
Another experiment addresses T5, Protein RecA (Mycobacterium tuberculosis, UniProt P9WHJ3).
T5 sequence (P9WHJ3 whole entry): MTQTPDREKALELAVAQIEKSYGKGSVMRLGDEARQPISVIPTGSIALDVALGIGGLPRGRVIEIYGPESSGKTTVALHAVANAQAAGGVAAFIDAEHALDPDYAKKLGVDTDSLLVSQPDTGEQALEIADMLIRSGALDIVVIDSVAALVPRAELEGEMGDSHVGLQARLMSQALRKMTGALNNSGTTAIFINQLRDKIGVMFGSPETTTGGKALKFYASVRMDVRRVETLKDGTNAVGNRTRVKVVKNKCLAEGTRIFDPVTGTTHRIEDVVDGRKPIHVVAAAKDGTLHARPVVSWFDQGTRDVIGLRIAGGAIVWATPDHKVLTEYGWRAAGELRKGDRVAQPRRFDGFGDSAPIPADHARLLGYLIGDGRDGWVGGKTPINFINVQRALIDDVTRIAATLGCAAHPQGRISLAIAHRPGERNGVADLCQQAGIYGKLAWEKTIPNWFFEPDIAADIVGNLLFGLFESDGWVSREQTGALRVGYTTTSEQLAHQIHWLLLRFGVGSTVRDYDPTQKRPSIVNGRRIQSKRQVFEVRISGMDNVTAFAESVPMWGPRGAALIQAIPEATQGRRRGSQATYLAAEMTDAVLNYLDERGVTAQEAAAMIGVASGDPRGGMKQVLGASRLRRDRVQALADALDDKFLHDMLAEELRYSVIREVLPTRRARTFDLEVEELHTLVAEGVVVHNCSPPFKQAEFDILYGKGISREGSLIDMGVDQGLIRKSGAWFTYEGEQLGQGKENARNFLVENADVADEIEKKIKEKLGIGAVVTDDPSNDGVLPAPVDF
As to the kind of experiment: Fluorescence Cell-Free Homogeneous Dose Retest to Identify Inhibitors of RecA-Intein Splicing Activity. [Related pubchem assays (depositor defined):AID2097, AID2223, AID489010, AID492950]. Type of experiment: functional.

In another experiment the target is Cytochrome P450 2D6 (Homo sapiens, UniProt P10635).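 Note: CYP2D6 member of a cytochrome P450 panel assay.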
Experiment [16] deals with Voltage-dependent T-type calcium channel subunit alpha-1H (Homo sapiens, UniProt O95180). As to the kind of experiment: Cav3.2 T-type channel inhibitors, synthesized analogs, SAR follow-up, cell-based, synthetic library set 2, HEK293 HH8, Fluo-4 (AID 493023). Type of experiment: functional.

The term EC50 denotes the concentration giving half of the maximal effect. The IC50 is the concentration that gives 50% inhibition. Broadly, the AC50 is the concentration giving half of the maximal activity seen. Usually CC50 stands for the concentration that lowers cell viability or growth by half.

Activity calls are given as the source filed them.
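Throughout, for CC50: cells exposed to compound for 72 hours before luminescence readout.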

T1 sequence (P98170 whole entry): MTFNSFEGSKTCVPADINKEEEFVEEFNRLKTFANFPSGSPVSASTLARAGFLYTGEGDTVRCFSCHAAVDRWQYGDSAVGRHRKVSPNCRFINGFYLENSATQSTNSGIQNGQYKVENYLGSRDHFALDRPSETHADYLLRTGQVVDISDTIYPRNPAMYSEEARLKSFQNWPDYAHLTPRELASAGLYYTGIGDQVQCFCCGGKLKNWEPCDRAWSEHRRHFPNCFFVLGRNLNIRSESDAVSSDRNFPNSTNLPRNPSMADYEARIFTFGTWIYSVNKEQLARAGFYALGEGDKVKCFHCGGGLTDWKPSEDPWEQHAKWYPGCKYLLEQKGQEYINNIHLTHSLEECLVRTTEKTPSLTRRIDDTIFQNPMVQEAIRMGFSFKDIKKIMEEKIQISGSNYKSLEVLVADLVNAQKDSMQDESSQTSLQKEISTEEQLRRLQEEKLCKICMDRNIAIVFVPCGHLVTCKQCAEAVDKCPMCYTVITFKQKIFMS
Chain of Intestinal-type alkaline phosphatase (P09923 whole entry): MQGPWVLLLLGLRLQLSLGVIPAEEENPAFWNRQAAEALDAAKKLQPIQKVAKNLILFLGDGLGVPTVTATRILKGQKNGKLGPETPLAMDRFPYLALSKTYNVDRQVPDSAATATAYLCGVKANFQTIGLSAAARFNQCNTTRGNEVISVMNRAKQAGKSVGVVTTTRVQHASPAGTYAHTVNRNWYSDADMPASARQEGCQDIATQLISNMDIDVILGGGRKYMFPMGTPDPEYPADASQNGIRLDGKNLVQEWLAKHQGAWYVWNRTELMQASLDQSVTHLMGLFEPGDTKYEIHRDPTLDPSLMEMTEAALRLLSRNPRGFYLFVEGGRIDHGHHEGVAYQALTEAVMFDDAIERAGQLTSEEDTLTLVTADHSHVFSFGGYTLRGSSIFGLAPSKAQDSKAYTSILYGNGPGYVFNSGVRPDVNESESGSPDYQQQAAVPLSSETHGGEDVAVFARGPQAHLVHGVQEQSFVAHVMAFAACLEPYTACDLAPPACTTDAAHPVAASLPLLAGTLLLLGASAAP
Chain of Voltage-dependent T-type calcium channel subunit alpha-1H (O95180 whole entry): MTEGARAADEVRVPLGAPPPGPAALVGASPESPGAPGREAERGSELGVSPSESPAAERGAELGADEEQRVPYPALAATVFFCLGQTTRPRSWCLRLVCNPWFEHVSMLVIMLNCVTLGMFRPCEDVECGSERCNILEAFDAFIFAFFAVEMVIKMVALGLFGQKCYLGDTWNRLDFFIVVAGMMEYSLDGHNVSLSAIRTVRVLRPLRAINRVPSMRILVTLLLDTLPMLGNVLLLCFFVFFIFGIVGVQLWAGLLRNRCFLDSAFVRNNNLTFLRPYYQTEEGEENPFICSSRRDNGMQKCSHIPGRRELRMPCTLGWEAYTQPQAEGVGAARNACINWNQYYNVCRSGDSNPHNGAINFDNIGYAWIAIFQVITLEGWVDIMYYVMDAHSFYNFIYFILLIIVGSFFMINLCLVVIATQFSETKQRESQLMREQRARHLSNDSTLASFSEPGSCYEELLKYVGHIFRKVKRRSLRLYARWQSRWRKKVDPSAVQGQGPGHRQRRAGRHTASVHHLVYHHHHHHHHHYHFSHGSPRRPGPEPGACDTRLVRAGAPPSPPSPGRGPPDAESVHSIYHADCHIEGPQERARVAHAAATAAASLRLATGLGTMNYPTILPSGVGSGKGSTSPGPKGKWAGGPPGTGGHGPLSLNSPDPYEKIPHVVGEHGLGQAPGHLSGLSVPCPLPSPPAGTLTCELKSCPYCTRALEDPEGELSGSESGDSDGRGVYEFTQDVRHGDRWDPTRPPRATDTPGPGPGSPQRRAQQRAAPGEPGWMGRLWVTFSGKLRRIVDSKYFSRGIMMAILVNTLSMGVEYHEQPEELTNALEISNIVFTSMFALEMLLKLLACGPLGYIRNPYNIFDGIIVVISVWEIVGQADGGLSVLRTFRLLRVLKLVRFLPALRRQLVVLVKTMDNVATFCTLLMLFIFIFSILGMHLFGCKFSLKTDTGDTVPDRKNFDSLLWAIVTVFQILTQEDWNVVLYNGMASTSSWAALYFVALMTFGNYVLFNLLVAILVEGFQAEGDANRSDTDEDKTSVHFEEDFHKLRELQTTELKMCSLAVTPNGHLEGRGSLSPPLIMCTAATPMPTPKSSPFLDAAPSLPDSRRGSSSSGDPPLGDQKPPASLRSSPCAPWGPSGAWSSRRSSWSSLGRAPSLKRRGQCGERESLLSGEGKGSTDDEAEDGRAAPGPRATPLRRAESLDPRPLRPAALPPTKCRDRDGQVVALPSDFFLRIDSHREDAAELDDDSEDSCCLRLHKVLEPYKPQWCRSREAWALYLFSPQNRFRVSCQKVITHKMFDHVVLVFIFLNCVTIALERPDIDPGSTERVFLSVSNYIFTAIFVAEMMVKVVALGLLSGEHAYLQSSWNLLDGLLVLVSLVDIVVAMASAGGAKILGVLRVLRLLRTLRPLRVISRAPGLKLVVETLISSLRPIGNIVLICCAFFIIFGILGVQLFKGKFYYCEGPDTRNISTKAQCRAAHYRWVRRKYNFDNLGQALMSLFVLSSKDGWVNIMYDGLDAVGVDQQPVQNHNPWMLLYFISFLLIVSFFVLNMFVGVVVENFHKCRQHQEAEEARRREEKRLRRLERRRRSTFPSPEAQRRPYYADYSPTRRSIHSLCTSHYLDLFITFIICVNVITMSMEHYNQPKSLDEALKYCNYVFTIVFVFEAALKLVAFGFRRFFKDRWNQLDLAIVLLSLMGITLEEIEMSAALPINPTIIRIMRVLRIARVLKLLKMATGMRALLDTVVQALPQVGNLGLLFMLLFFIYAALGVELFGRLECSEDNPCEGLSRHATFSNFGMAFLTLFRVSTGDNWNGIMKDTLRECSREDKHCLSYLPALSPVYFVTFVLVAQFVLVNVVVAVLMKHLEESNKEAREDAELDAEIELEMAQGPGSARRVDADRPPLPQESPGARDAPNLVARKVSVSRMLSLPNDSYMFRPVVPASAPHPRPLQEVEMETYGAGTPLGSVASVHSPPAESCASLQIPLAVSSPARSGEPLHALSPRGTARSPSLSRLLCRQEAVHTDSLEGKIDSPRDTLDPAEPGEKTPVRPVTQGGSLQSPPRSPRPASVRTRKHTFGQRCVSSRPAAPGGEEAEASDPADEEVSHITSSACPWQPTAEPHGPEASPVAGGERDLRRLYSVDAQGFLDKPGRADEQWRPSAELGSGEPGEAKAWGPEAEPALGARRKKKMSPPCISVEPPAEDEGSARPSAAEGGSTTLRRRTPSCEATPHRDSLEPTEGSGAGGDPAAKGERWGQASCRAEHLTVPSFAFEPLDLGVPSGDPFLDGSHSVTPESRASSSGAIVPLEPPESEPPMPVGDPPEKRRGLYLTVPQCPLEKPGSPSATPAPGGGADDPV
Chain of Cytochrome P450 2D6 (P10635 whole entry): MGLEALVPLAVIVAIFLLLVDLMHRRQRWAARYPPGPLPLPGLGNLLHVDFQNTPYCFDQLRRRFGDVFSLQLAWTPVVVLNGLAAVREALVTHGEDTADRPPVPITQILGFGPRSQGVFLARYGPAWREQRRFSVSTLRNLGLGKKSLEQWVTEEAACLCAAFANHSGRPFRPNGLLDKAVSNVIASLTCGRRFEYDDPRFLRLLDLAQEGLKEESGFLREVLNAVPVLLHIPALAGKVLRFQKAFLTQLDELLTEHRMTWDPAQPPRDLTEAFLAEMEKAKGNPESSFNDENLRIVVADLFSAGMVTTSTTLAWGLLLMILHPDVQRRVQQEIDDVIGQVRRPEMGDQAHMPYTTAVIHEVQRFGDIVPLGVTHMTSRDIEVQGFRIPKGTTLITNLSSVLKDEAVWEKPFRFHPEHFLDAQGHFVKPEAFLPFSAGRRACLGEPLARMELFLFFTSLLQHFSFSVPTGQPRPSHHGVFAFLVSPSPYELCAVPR

On to `CC[n+]1c(/C=C/C=C/c2ccc(N(C)C)cc2)sc2ccccc21`, for which the concentration for a half-maximal effect (EC50) in experiment [1] is 1.54 µM (active); in experiment [2], 1.54 µM (inconclusive); in experiment [3], 26.3 µM (active); in experiment [4] it was 2.69 µM (inconclusive); in experiment [5] it was 2.69 µM (active); in experiment [6] it was 26.3 µM (inconclusive).

For `N#CCN1C(=S)N=C(Nc2cccc(Cl)c2)C12CCCCC2`, the half-maximal effective concentration (EC50) is > 120 µM (not active) in [7], > 120 µM (not active) in experiment [8], > 100 µM (inactive) in experiment [9] and > 120 µM (not active) in [10].

Consider `CCOC(=O)C1(CCCc2ccccc2)CCN(C(=O)C2=C(C)OCCO2)CC1`, for which the IC50 in experiment [11] is > 100 µM (not active); in experiment [12] it was > 100 µM (inactive).

As to `COc1cc(OC)cc(C(=O)NC(=S)NNC(=O)c2cnccn2)c1`, the EC50 is 11.5 µM (active) in experiment [7]; 11.5 µM (active) on Hexokinase HKDC1; 10.2 µM (active) in [8]; > 80 µM (inactive) on Hexokinase-1; > 120 µM (not active) in [10].

Consider `CC(C)CCn1c(N)c(C(=O)NCc2cccs2)c2nc3ccccc3nc21`, for which the figures for the concentration at half-maximal activity (AC50) (in experiment [13]; in experiment [15]; at Cytochrome P450 2D6) were 4.01 µM (active), 3.46 µM (active) and 8.91 µM (inconclusive), respectively. In experiment [14], the CC50 is > 40 µM (active). Also, the 50% effective concentration (EC50) on Protein RecA is 3.04 µM (active).

Regarding `O=C(N[C@@H]1CCCN(Cc2ccccc2)C1)c1cc(Cl)cc(Cl)c1`, in [16], the EC50 was 10 µM (active).
